Legend:
Settings in all cases: 72 h
[1] = tested on: Vero E6; assay: cell viability relative to DMSO; higher = less toxic
[2] = tested on: Calu-3; assay: as above
[3] = tested on: Caco-2; assay: as above
[4] = tested on: HepG2; assay: as above
[5] = tested on: Vero E6; assay: drug sensitivity score (DSS) for viability; higher = more toxic; extreme values may be limits of the assay
[6] = tested on: Calu-3; assay: as above
[7] = tested on: Caco-2; assay: as above
[8] = tested on: HepG2; assay: as above
[9] = tested on: Vero E6; assay: relative viability EC50 (midpoint between 100% and the lowest measured viability); higher = less toxic
[10] = tested on: Calu-3; assay: as above
[11] = tested on: Caco-2; assay: as above
[12] = tested on: HepG2; assay: as above
[13] = tested on: U2OS; assay: cell viability relative to DMSO; higher = less toxic
[14] = tested on: U2OS; assay: drug sensitivity score (DSS) for viability; higher = more toxic; extreme values may be limits of the assay
[15] = tested on: U2OS; assay: relative viability EC50 (midpoint between 100% and the lowest measured viability); higher = less toxic

| SMILES | cell viability ([1]; 1 nM) | cell viability ([1]; 10 nM) | cell viability ([1]; 100 nM) | cell viability ([1]; 1000 nM) | cell viability ([1]; 10000 nM) | cell viability ([2]; 1 nM) | cell viability ([2]; 10 nM) | cell viability ([2]; 100 nM) | cell viability ([2]; 1000 nM) | cell viability ([2]; 10000 nM) | cell viability ([3]; 1 nM) | cell viability ([3]; 10 nM) | cell viability ([3]; 100 nM) | cell viability ([3]; 1000 nM) | cell viability ([3]; 10000 nM) | cell viability ([4]; 1 nM) | cell viability ([4]; 10 nM) | cell viability ([4]; 100 nM) | cell viability ([4]; 1000 nM) | cell viability ([4]; 10000 nM) | drug sensitivity score [5] | drug sensitivity score [6] | drug sensitivity score [7] | drug sensitivity score [8] | relative viability EC50 [9] | relative viability EC50 [10] | relative viability EC50 [11] | relative viability EC50 [12] | cell viability ([13]; 1 nM) | cell viability ([13]; 10 nM) | cell viability ([13]; 100 nM) | cell viability ([13]; 1000 nM) | cell viability ([13]; 10000 nM) | drug sensitivity score [14] | relative viability EC50 [15] |
| --- | --- | --- | --- | --- | --- | --- | --- | --- | --- | --- | --- | --- | --- | --- | --- | --- | --- | --- | --- | --- | --- | --- | --- | --- | --- | --- | --- | --- | --- | --- | --- | --- | --- | --- | --- |
| O=c1cccc2n1C[C@H]1C[C@@H]2CN(CCN2C[C@@H]3C[C@H](C2)c2cccc(=O)n2C3)C1 [CC4] | 97.4% | 94.6% | 98.8% | 92.8% | 101% | 87.1% | 104% | 101% | 119% | 104% | 98.2% | 100% | 91.4% | 93.1% | 98.3% | 91.3% | 91.9% | 93.9% | 97.4% | 93.4% | 0 | 0 | 0 | 0 | > 10 µM | > 10 µM | > 10 µM | > 10 µM | – | – | – | – | – | – | – |
| CCOc1ccc2nc3cc(N)ccc3c(N)c2c1 [ethacridine-lactate-monohydrate] | 102% | 101% | 100% | 102% | 97.2% | – | – | – | – | – | 97.4% | 104% | 101% | 110% | 95.4% | 115% | 131% | 124% | 96.6% | 25.4% | 0 | – | 0 | 4.6 | > 10 µM | – | > 10 µM | 2.82 µM | 106% | 105% | 104% | 105% | 55.6% | 1.9 | – |
| O=C1NC(=O)/C(=C/c2ccc(-c3ccc(F)cc3O)o2)S1 | 102% | 100% | 99.3% | 100% | 81.2% | 116% | 109% | 102% | 98.2% | 77% | 94% | 103% | 96.3% | 105% | 72.5% | 96.2% | 96.2% | 95.9% | 96.6% | 106% | 0.5 | 1 | 0.9 | 0 | > 10 µM | > 10 µM | – | > 10 µM | 103% | 101% | 91% | 104% | 91.2% | 0 | > 10 µM |
| CC1(COc2ccc3c(c2)ncn3-c2ccc3cccc(N4CCC(N)CC4)c3n2)COC1 [crenolanib] | 102% | 104% | 101% | 102% | 22.6% | – | – | – | – | – | 101% | 97.1% | 102% | 112% | 94.5% | 107% | 103% | 107% | 101% | 9.5% | 4.1 | – | 0 | 4.9 | 3.3 µM | – | > 10 µM | 3.26 µM | 106% | 102% | 106% | 101% | 9.4% | 4.9 | 3.26 µM |
| Cc1sc2c(c1C)C(c1ccc(Cl)cc1)=N[C@@H](CC(N)=O)c1nnc(C)n1-2 [CPI-203] | 96.4% | 93.9% | 73.7% | 15.4% | 11% | 98.3% | 105% | 100% | 78.3% | 60% | 100% | 95.8% | 88.9% | 76.3% | 70.5% | 91.8% | 94.3% | 81.3% | 40.2% | 35.2% | 18.6 | 4.7 | 4.7 | 13.2 | 0.172 µM | – | – | 0.186 µM | 93.9% | 94.4% | 86.1% | 57.9% | 43.6% | 9.3 | 0.302 µM |
| COc1ccc(OC)c(CN(C(C)=O)c2cc(F)ccc2Oc2ccccc2)c1 [DAA-1106] | 102% | 99% | 103% | 107% | 101% | 103% | 102% | 93.7% | 98.5% | 98.1% | 93.4% | 112% | 93.1% | 108% | 71.4% | 102% | 105% | 99.2% | 95.7% | 96% | 0 | 0 | 0.9 | 0 | > 10 µM | > 10 µM | – | > 10 µM | 102% | 107% | 100% | 96.5% | 93.6% | 0 | > 10 µM |
| C[C@@H]1CN(Cc2ccc(F)cc2)CCN1C(=O)COc1ccc(Cl)cc1NC(N)=O | 103% | 113% | 93.3% | 104% | 93% | 97.1% | 104% | 98.1% | 104% | 85% | 98.2% | 95.7% | 92.9% | 81.3% | 66.6% | 93.3% | 101% | 87.7% | 51.9% | 19.1% | 0 | 0.1 | 3.6 | 10.8 | > 10 µM | > 10 µM | – | 0.635 µM | 103% | 96.1% | 99.3% | 95% | 72.8% | 1.9 | – |
| Cn1cc(C(F)(F)F)nc1-c1ccc(OCC(O)CNCCOc2ccc(O)c(C(N)=O)c2)cc1 (configuration not stated) | 104% | 96.4% | 102% | 90.1% | 95.7% | – | – | – | – | – | 102% | 96.6% | 102% | 98.7% | 87.4% | 111% | 97% | 122% | 94.3% | 114% | 0 | – | 0.2 | 0 | > 10 µM | – | > 10 µM | > 10 µM | 98.7% | 100% | 94% | 101% | 98.1% | 0 | > 10 µM |
| Cn1cncc1[C@@](N)(c1ccc(Cl)cc1)c1ccc2c(c1)c(-c1cccc(Cl)c1)cc(=O)n2C [tipifarnib] | 103% | 94.2% | 95.1% | 82.7% | 76.9% | 88.7% | 92.1% | 81.6% | 63.2% | 54.5% | 86.5% | 90.7% | 80.3% | 73.1% | 59.9% | 98.4% | 95.2% | 74.3% | 63.5% | 23.3% | 2.5 | 8.9 | 7.8 | 10.6 | > 10 µM | – | – | 0.532 µM | 95.3% | 96.7% | 88.9% | 70.9% | 53.9% | 6.4 | – |
| Nc1nccc2c1ncn2[C@@H]1O[C@H](CO)[C@@H](O)[C@@H]1O [3-deazaadenosine] | 87.4% | 100% | 90.8% | 92.8% | 95.1% | – | – | – | – | – | 89.8% | 101% | 97.9% | 89.2% | 97% | 97.9% | 103% | 95.6% | 97.3% | 96.1% | 0 | – | 0 | 0 | > 10 µM | – | > 10 µM | > 10 µM | 99.9% | 99.4% | 97.7% | 103% | 95.8% | 0 | > 10 µM |
| CCC(=O)N[C@@H]1Cc2ccccc2[C@H](c2ccccc2)C1 [4-P-PDOT] | 95.9% | 97.4% | 100% | 96.1% | 98.5% | 105% | 94.6% | 104% | 114% | 102% | 103% | 95.4% | 100% | 95.1% | 94.4% | 106% | 111% | 99% | 88.9% | 108% | 0 | 0 | 0 | 0 | > 10 µM | > 10 µM | > 10 µM | > 10 µM | – | – | – | – | – | – | – |
| NS(=O)(=O)c1cc(-c2nnn[nH]2)c(NCc2cccs2)cc1Cl [azosemide] | 103% | 108% | 104% | 106% | 97.1% | – | – | – | – | – | 99.4% | 111% | 86.5% | 92.4% | 92.1% | 94.5% | 103% | 103% | 95.7% | 89.6% | 0 | – | 1.6 | 0 | > 10 µM | – | > 10 µM | > 10 µM | – | – | – | – | – | – | – |
| CC(C)(C)S(=O)(=O)N[C@H]1CC[C@H](C(=O)Nc2ccc(C(F)(F)F)cn2)CC1 [velneperit] | 94.4% | 104% | 98.4% | 101% | 94.5% | 106% | 103% | 117% | 95.5% | 99.1% | 109% | 98.1% | 103% | 91.7% | 104% | 100% | 105% | 105% | 98.9% | 98% | 0 | 0 | 0 | 0 | > 10 µM | > 10 µM | > 10 µM | > 10 µM | – | – | – | – | – | – | – |
| COc1cc(NC(=O)c2ccc(-c3ccc(Cl)cc3)o2)cc(OC)c1 | 94.5% | 101% | 97.2% | 97.6% | 101% | 121% | 103% | 109% | 101% | 99.3% | 108% | 98.9% | 107% | 102% | 98.1% | 105% | 109% | 91.9% | 114% | 102% | 0 | 0 | 0 | 0 | > 10 µM | > 10 µM | > 10 µM | > 10 µM | – | – | – | – | – | – | – |
| CO[C@H]1CC[C@@H](C(=O)c2ccc3nc4c(cc3c2)CCCO4)CC1 | 102% | 103% | 93.1% | 99% | 100% | – | – | – | – | – | 90.8% | 90.3% | 104% | 99.2% | 92.7% | 99.5% | 107% | 104% | 102% | 104% | 0 | – | 0 | 0 | > 10 µM | – | > 10 µM | > 10 µM | 99.8% | 93.8% | 104% | 97.8% | 101% | 0 | > 10 µM |
| CC(C)c1nc(N(C)S(C)(=O)=O)nc(-c2ccc(F)cc2)c1/C=C/[C@@H](O)C[C@@H](O)CC(=O)O [rosuvastatin] | 101% | 97.9% | 99.6% | 100% | 72.7% | 98.5% | 91.3% | 101% | 105% | 103% | 103% | 105% | 100% | 101% | 83.7% | 109% | 110% | 98.4% | 106% | 96.1% | 1.1 | 0 | 0.3 | 0 | – | > 10 µM | > 10 µM | > 10 µM | 101% | 96.7% | 102% | 99.5% | 98% | 0 | > 10 µM |

Source: the supplement of paper PMC13380429
